Measurements published in patent US20190030053A1, “COMPOSITION FOR INCREASING EXPRESSION OF PGC-1alpha” (BENEBIOSIS CO., LTD., priority 2016, published 2019).

Key:
PGC-1α and related genes [1] = test: Abdominal fat gene expression in high-fat diet ob mouse models; format: in vivo; conditions: ob mice, oral 0.1 mg/kg/day, 10 weeks
Protocol: In order to investigate gene expression changes and topical fat removal effects by treatment with SL (3′-SL & 6′-SL) composition in mouse models, 4-week-old male ob mouse (C57BL/6J-ob/ob) models were purchased from Central Lab Animal (Korea). Water was freely accessible, and a high-fat diet (Rodent Diet with 60 kcal % fat) was supplied for two weeks. […]
(§1) Sialyllactose or DW was orally administered daily. […] The dietary intake and body weight change were measured every 5 days. […]
(§2) Gene expression changes by the treatment with SL (3′-SL & 6′-SL) compositions were quantitatively compared in the abdominal part. RNA was extracted by TRIzol agent (Invitrogen). cDNA was synthesized by using RNA, which has been extracted as above and quantified, and a reverse transcription system (Promega, USA). The expression patterns of PGC-1α and related genes were measured by using pre-designed primers and probes (Applied Biosystems; PGC-1α, Mm00447181_m1, GAPDH, and Mm99999915_q1) for the synthesized cDNA and analysis targets (Fndc5, PGC-1α, Erra, UCP1, SOD2, and GPX1). […]

PGC-1α and related genes [2] = test: Gene expression in brain and hippocampus of epilepsy/convulsion brain disease models; format: in vivo, rat; conditions: Noda epileptic rats, oral 0.1 mg/kg/day, 10 weeks
From the text: In order to investigate the gene expression changes by the treatment with SL (3′-SL & 6′-SL) compositions in epilepsy/convulsion brain disease models, 4-week-old normal SD rats and epilepsy/convulsion brain disease models (Noda epileptic rat, NER) were purchased from Central Lab Animal (Korea). Water was freely accessible, and a commercially available pellet feed (Dooyeul Biotech, Korea) was given for two weeks. At 6 weeks of age, the SD rats were divided into four groups (composed of 8 animals per group): Eight 6-week-old male SD rats (normal rats; initial body weight, average 176.3±13.3 g) treated with a normal diet were used for a control group. […]
as §1
as §2, with “The gene” for “Gene”, “two main organs (brain and hippocampus) associated with bran diseases.” for “the abdominal part.”, “[…])” for “GAPDH, and Mm99999915_q1)”, “UCP1, BDNF,” for “UCP1,”

| SMILES | expression levels of analysis targets (Fndc5, PGC-1α, Erra, UCP1, SOD2, GPX1) in abdominal fat vs negative control (PGC-1α and related genes [1]) | expression levels of PGC-1α and related genes vs SL non-administration (epilepsy/convulsion brain disease model) group (PGC-1α and related genes [2]) |
| --- | --- | --- |
| CC(=O)N[C@H]1[C@H]([C@H](O)[C@H](O)CO)O[C@@](OC[C@H]2O[C@@H](O[C@H]3[C@H](O)[C@@H](O)[C@H](O)O[C@@H]3CO)[C@H](O)[C@@H](O)[C@H]2O)(C(=O)O)C[C@@H]1O [6′-SL, α-NeuNAc-(2→6)-β-D-Gal-(1→4)-D-Glc] | about two-time significant increases | significant increases |
| CC(=O)N[C@H]1[C@H]([C@H](O)[C@H](O)CO)O[C@@](O[C@H]2[C@@H](O)[C@@H](CO)O[C@@H](O[C@H]3[C@H](O)[C@@H](O)C(O)O[C@@H]3CO)[C@@H]2O)(C(=O)O)C[C@@H]1O (stereo partly drawn) [3′-SL, α-NeuNAc-(2→3)-β-D-Gal-(1→4)-D-Glc] | relatively low compared with 6′-SL | relatively low compared with 6′-SL |
